Counter-ions that a name gives are not always drawn. Like-named read-outs stand apart in the source and are kept apart here.
Molecular target: T1, recombinant human baculovirus-expressed GST-tagged FASN (Homo sapiens, UniProt P49327)
T1 construct: GST
Experiment: FASN enzyme activity assay, fluorescence-based detection of CoA with CPM
Format: biochemical
Conditions: 5 nM FASN, 150 μM NADPH, 10 μM acetyl-CoA, 25 μM malonyl-CoA, 90 minutes incubation
In short: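 Human GST-tagged FASN, baculovirus-expressed (5 nM), in 50 mM HEPES pH 7.5 with 150 μM NADPH, 10 μM acetyl-CoA, 25 μM malonyl-CoA, 0.5% DMSO; malonyl-CoA-started, 90 min. Released CoA detected with CPM (50 μM dilution), 30 min, fluorescence ex 390/em 530. IC50 from variable-slope sigmoidal fit of % inhibition versus log concentration.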

[1] = read-out: IC50 data for Compounds of Formulae I-V/V(a): Activity
[2] = read-out: IC50 data for Additional Compounds of Formulae I-V(a): Activity

T1 sequence (P49327 whole entry): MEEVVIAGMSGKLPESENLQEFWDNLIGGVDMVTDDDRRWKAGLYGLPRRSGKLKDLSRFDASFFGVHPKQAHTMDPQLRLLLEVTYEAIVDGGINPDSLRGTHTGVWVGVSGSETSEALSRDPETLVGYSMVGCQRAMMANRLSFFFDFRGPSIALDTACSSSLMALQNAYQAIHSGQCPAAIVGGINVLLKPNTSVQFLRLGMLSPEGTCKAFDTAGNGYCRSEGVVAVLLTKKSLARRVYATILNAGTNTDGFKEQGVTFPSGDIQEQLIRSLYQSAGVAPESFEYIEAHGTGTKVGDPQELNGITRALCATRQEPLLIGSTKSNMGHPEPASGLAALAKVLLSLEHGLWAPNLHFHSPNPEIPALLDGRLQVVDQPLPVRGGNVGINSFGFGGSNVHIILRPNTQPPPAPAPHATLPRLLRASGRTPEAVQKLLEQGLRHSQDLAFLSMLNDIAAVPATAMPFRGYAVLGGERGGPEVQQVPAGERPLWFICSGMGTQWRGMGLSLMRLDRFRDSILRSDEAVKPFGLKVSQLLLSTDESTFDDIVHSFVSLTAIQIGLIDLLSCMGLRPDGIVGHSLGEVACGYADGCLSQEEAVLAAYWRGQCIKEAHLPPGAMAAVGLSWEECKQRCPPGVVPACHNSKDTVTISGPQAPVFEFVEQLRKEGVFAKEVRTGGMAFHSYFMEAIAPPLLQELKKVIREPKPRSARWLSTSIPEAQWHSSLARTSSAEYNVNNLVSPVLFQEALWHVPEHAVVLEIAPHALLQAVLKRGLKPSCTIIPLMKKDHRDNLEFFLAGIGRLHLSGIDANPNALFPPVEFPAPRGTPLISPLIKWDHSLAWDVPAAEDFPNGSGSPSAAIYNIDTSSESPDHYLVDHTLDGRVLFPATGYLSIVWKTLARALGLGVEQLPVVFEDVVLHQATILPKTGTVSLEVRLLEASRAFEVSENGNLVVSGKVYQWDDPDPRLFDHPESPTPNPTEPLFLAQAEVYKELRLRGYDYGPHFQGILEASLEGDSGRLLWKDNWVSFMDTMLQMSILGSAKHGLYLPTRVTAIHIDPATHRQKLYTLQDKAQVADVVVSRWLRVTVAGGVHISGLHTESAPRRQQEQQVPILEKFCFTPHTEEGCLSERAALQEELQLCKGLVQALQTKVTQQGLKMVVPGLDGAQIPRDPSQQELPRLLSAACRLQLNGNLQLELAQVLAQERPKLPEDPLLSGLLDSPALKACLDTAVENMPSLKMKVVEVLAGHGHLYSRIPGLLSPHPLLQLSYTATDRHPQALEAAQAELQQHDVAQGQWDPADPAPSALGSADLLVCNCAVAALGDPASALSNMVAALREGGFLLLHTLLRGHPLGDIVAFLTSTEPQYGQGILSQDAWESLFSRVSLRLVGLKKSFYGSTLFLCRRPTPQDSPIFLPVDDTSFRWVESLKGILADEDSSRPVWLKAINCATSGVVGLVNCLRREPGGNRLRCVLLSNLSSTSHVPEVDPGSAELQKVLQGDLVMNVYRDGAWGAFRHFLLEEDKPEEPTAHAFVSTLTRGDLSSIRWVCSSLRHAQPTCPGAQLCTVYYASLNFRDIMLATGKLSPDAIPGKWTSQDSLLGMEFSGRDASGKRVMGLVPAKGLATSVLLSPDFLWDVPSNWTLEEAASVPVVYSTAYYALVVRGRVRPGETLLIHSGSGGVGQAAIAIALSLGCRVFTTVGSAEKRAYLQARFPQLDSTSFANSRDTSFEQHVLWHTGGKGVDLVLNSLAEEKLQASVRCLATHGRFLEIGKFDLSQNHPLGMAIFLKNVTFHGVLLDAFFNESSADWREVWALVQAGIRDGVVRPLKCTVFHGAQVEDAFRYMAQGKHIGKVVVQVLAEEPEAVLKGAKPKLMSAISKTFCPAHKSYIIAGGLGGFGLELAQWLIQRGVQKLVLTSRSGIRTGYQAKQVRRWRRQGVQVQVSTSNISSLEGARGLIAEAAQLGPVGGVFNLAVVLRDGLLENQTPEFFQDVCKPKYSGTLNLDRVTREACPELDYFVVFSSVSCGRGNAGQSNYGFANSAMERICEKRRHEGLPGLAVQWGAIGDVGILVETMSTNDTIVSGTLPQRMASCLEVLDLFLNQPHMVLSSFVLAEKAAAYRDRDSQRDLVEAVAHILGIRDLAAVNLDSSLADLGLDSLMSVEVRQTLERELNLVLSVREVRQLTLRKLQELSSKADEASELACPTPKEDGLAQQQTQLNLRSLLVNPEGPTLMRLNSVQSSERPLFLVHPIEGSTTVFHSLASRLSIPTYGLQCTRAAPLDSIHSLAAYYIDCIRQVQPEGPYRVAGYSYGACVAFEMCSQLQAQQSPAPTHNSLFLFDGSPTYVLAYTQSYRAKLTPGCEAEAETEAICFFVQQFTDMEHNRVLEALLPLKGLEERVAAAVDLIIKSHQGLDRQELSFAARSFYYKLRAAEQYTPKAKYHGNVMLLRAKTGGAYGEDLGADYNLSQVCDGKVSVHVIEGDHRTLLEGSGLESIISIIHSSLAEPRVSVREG

SMILES: Cc1ccoc1C(=O)N1CCC(Oc2ccc(-c3cnc4ccccc4c3)cc2)CC1 [Example 121, (3-Methylfuran-2-yl)-[4-(4-quinolin-3-yl-phenoxy)-piperidin-1-yl]-methanone, HCl]
- IC50 [1]: 1000 to 10000 nM

SMILES: O=C(C1CC1)N1CCC(Oc2ccc(-c3ccc4cccnc4c3OCCCN3CCCC3)cc2)CC1 [Example 176, Cyclopropyl-(4-{4-[8-(3-pyrrolidin-1-yl-propoxy)-quinolin-7-yl]-phenoxy}-piperidin-1-yl)-methanone, HCl]
- IC50 [1]: 1000 to 10000 nM

SMILES: O=C([C@H]1CCCO1)N1CCC(Oc2ccc(-c3cnc4sccc4c3)cc2)CC1 [Example 254, (R)-Tetrahydrofuran-2-yl-[4-(4-thieno[2,3-b]pyridin-5-yl-phenoxy)-piperidin-1-yl]-methanone, TFA salt]
- IC50 [1]: 1 to 99 nM

SMILES: CCC(=O)N1CCC(Oc2ccc(-c3cnc4ccccc4c3)cc2C)CC1 [Example 212, 1-[4-(2-Methyl-4-quinolin-3-yl-phenoxy)-piperidin-1-yl]-propan-1-one]
- IC50 [1]: 1000 to 10000 nM

SMILES: Cc1c(-c2ccc(OC3CCN(C(=O)OCCN4CCCC4)CC3)cc2)ccc2cccnc12 [Example 547, 2-Pyrrolidin-1-ylethyl 4-[4-(8-methyl-7-quinolyl)phenoxy]piperidine-1-carboxylate, 2HCl]
- IC50 [2]: 1000 to 10000 nM

SMILES: O=C(C1CCC1)N1CCC(Oc2ccc(-c3cnc4ccccc4c3Cl)cc2)CC1 [Example 49, {4-[4-(4-Chloroquinolin-3-yl)-phenoxy]-piperidin-1-yl}-cyclobutyl-methanone]
- IC50 [1]: 1 to 99 nM

SMILES: O=C(C1CCC1)N1CCC(Oc2ccc(-c3ccc(N4CCOCC4)nc3)cc2)CC1 [Example 388, Cyclobutyl-{4-[4-(6-morpholin-4-yl-pyridin-3-yl)-phenoxy]-piperidin-1-yl}-methanone]
- IC50 [1]: 1000 to 10000 nM

SMILES: O=C(C1CCCCO1)N1CCC(Oc2ccc(-c3cnc4ccccc4c3)cc2)CC1 (stereo not drawn) [Example 106, [4-(4-Quinolin-3-yl-phenoxy)-piperidin-1-yl]-(tetrahydropyran-2-yl)-methanone, 2HCl]
- IC50 [1]: 100 to 999 nM

SMILES: Cc1c(-c2ccc(OC3CCN(C(=O)NOCC(C)C)CC3)cc2)ccc2cccnc12 [Example 544, N-Isobutoxy-4-[4-(8-methyl-7-quinolyl)phenoxy]piperidine-1-carboxamide]
- IC50 [2]: 1 to 99 nM

SMILES: CCCNC(=O)N1CCC(Oc2ccc(-c3ccc4cccnc4c3C)cc2)CC1 [Example 96, 4-[4-(8-methyl-7-quinolyl)phenoxy]-N-propyl-piperidine-1-carboxamide]
- IC50 [1]: 1 to 99 nM

SMILES: O=C(C1CC1)N1CCC(Oc2ccc(-c3cc4ccccc4nc3Cl)cc2)CC1 [Example 17, {4-[4-(2-Chloroquinolin-3-yl)-phenoxy]-piperidin-1-yl}-cyclopropyl-methanone]
- IC50 [1]: 1000 to 10000 nM

SMILES: COc1cc(-c2ccc(OC3CCN(C(=O)[C@H]4CCCO4)CC3)cc2)cn2nccc12 [Example 424, {4-[4-(4-Methoxypyrazolo[1,5-a]pyridin-6-yl)-phenoxy]-piperidin-1-yl}-(R)-tetrahydrofuran-2-yl-methanone, HCl]
- IC50 [1]: 1 to 99 nM

SMILES: Cc1ccc2ccc(-c3ccc(OC4CCN(C(=O)C5CCC5)CC4)cc3)c(F)c2n1 [Example 27, Cyclobutyl-{4-[4-(8-fluoro-2-methylquinolin-7-yl)-phenoxy]-piperidin-1-yl}-methanone]
- IC50 [1]: 1000 to 10000 nM

SMILES: Cc1c(-c2ccc(OC3CCN(C(=O)C4CCC4)CC3)cc2)cnc2ccccc12 [Example 62, Cyclobutyl-{4-[4-(4-methylquinolin-3-yl)-phenoxy]-piperidin-1-yl}-methanone]
- IC50 [1]: 1 to 99 nM

SMILES: COc1cc2ncc(-c3ccc(OC4CCN(C(=O)C5CC5)CC4)cc3)cc2cc1F [Example 445, Cyclopropyl-{4-[4-(6-fluoro-7-methoxyquinolin-3-yl)-phenoxy]-piperidin-1-yl}-methanone]
- IC50 [1]: 1000 to 10000 nM

SMILES: O=C([C@H]1CCCO1)N1CCC(Oc2ccc(-c3cnc4ccccc4c3)cc2)CC1 [Example 103, [4-(4-Quinolin-3-yl-phenoxy)-piperidin-1-yl]-(R)-tetrahydrofuran-2-yl-methanone, HCl]
- IC50 [1]: 1 to 99 nM

SMILES: O=C([C@H]1CCCO1)N1CCC(Oc2ccc(-c3cnc4ccsc4c3)cc2)CC1 [Example 263, (R)-Tetrahydrofuran-2-yl-[4-(4-thieno[3,2-b]pyridin-6-yl-phenoxy)-piperidin-1-yl]-methanone, TFA salt]
- IC50 [1]: 1 to 99 nM

SMILES: O=C(C1CCC1)N1CCC(Oc2ccc(-c3cncc(Oc4ccccc4)c3)cc2)CC1 [Example 400, Cyclobutyl-{4-[4-(5-phenoxypyridin-3-yl)-phenoxy]-piperidin-1-yl}-methanone, HCl]
- IC50 [1]: 1000 to 10000 nM

SMILES: Cc1ccc2ncc(-c3ccc(OC4CCN(C(=O)[C@H]5CCCO5)CC4)cc3)cc2c1 [Example 485, {4-[4-(6-Methylquinolin-3-yl)-phenoxy]-piperidin-1-yl}-(R)-tetrahydro-furan-2-yl-methanone, HCl]
- IC50 [1]: 1 to 99 nM

SMILES: O=C(c1ncco1)N1CCC(Oc2ccc(-c3cnc4ccccc4c3)cc2)CC1 [Example 123, Oxazol-2-yl-[4-(4-quinolin-3-yl-phenoxy)-piperidin-1-yl]-methanone; HCl]
- IC50 [1]: 1000 to 10000 nM

SMILES: O=C([C@H]1CCCO1)N1CCC(Oc2ccc(-c3ccc4cccnc4c3Cl)cc2)CC1 [Example 260, {4-[4-(8-Chloro-quinolin-7-yl)-phenoxy]-piperidin-1-yl}-(R)-tetrahydro-furan-2-yl-methanone, TFA salt]
- IC50 [1]: 1 to 99 nM

SMILES: O=C(C1CCC1)N1CCC(Oc2ccc(-c3cc(O)c4ccnn4c3)cc2)CC1 [Example 427, Cyclobutyl-{4-[4-(4-hydroxy-pyrazolo[1,5-a]pyridin-6-yl)-phenoxy]-piperidin-1-yl}-methanone]
- IC50 [1]: 1000 to 10000 nM

SMILES: O=C(C1CC1)N1CCC(Oc2ccc(-c3cc(F)cc(OCc4ccccc4)c3)cc2)CC1 [Example 507, [4-(5′-Benzyloxy-3′-fluorobiphenyl-4-yloxy)-piperidin-1-yl]-cyclopropyl-methanone]
- IC50 [1]: 1000 to 10000 nM

SMILES: O=C([C@H]1CCCO1)N1CCC(Oc2ccc(-c3ccc4nccn4c3Cl)cc2)CC1 [Example 295, {4-[4-(5-Chloroimidazo[1,2-a]pyridin-6-yl)-phenoxy]-piperidin-1-yl}-(R)-tetrahydrofuran-2-yl-methanone]
- IC50 [1]: 1 to 99 nM

SMILES: Cc1cc(-c2ccc(OC3CCN(C(=O)[C@H]4CCCO4)CC3)cc2)cn2ccnc12 [Example 283, {4-[4-(8-Methylimidazo[1,2-a]pyridin-6-yl)-phenoxy]-piperidin-1-yl}-(R)-tetrahydrofuran-2-yl-methanone]
- IC50 [1]: 1 to 99 nM

SMILES: Cc1c(-c2ccc(OC3CCN(C(=O)NCCN(C)C)CC3)cc2)ccc2cccnc12 [Example 545, N-(2-Dimethylaminoethyl)-4-[4-(8-methyl-7-quinolyl)phenoxy]piperidine-1-carboxamide HCl]
- IC50 [2]: 1 to 99 nM

SMILES: CC(C)C(=O)N1CCC(S(=O)(=O)c2ccc(-c3ccc4ccncc4c3)cc2)CC1 [Example 513, 1-[4-(4-Isoquinolin-7-yl-benzenesulfonyl)-piperidin-1-yl]-2-methylpropan-1-one]
- IC50 [1]: 1000 to 10000 nM

SMILES: Cc1c(-c2ccc(OC3CCN(C(=O)CN)CC3)cc2)ccc2cccnc12 [Example 609, 2-Amino-1-[4-[4-(8-methyl-7-quinolyl)phenoxy]-1-piperidyl]ethanone, 2HCl]
- IC50 [2]: 1 to 99 nM

SMILES: Cc1c(-c2ccc(OC3CCN(C(=O)SC(C)C)CC3)cc2)ccc2cccnc12 [Example 618, S-Isopropyl 4-[4-(8-methyl-7-quinolyl)phenoxy]piperidine-1-carbothioate]
- IC50 [2]: 1000 to 10000 nM

SMILES: CCC(=O)N1CCC(Oc2ccc(-c3cnc4cc(F)ccc4c3)cc2)CC1 [Example 478, 1-{4-[4-(7-Fluoroquinolin-3-yl)-phenoxy]-piperidin-1-yl}-propan-1-one]
- IC50 [1]: 1 to 99 nM

SMILES: CCC(=O)N1CCC(Oc2ccc(-c3ccc4cccnc4c3OCCN3CCCC3)cc2)CC1 [Example 173, 1-(4-{4-[8-(2-Pyrrolidin-1-yl-ethoxy)-quinolin-7-yl]-phenoxy}-piperidin-1-yl)-propan-1-one, HCl]
- IC50 [1]: 1000 to 10000 nM

SMILES: CCC(=O)N1CCC(Oc2ccc(-c3c(C)ccc4ncccc34)cc2)CC1 [Example 350, 1-(4-(4-(6-Methylquinolin-5-yl)phenoxy)piperidin-1-yl)propan-1-one HCl]
- IC50 [1]: 100 to 999 nM

SMILES: CS(=O)(=O)N1CCC(Oc2ccc(-c3cnc4ccccc4c3)cc2)CC1 [Example 162, 3-[4-(1-Methanesulfonyl-piperidin-4-yloxy)-phenyl]-quinoline]
- IC50 [1]: 1000 to 10000 nM

SMILES: CCC(=O)N1CCC(Oc2ccc(-c3cnc4ccc(OC)cc4c3)cc2)CC1 [Example 53, 1-{4-[4-(6-Methoxyquinolin-3-yl)-phenoxy]-piperidin-1-yl}-propan-1-one]
- IC50 [1]: 1000 to 10000 nM

SMILES: CCC(=O)N1CCC(Oc2ccc(-c3ccc4cccnc4c3OCCOC)cc2)CC1 [Example 178, 1-[4-[4-[8-(2-Methoxyethoxy)-7-quinolyl]phenoxy]-1-piperidyl]propan-1-one, HCl]
- IC50 [1]: 100 to 999 nM

SMILES: COc1cc2cc(-c3ccc(OC4CCN(C(=O)C5CCC5)CC4)cc3)ccc2cn1 [Example 417, Cyclobutyl-{4-[4-(3-methoxyisoquinolin-6-yl)-phenoxy]-piperidin-1-yl}-methanone]
- IC50 [1]: 100 to 999 nM

SMILES: Cc1c(-c2ccc(OC3CCN(C(=O)NC4CCC4)CC3)cc2)ccc2cccnc12 [Example 552, N-Cyclobutyl-4-[4-(8-methyl-7-quinolyl)phenoxy]piperidine-1-carboxamide HCl]
- IC50 [2]: 1000 to 10000 nM

SMILES: CCC(=O)N1CCC(Oc2ccc(-c3ccc4cc(C#N)cnc4c3)cc2)CC1 [Example 277, 7-[4-(1-Propionyl-piperidin-4-yloxy)-phenyl]-quinoline-3-carbonitrile]
- IC50 [1]: 100 to 999 nM

SMILES: O=C(c1ccsn1)N1CCC(Oc2ccc(-c3cnc4ccccc4c3)cc2)CC1 [Example 125, Isothiazol-3-yl-[4-(4-quinolin-3-yl-phenoxy)-piperidin-1-yl]-methanone, HCl]
- IC50 [1]: 1000 to 10000 nM

— US9902696B2, “1,4-substituted piperidine derivatives” (Cephalon, Inc., priority 2015, dated 2018)
